Measurements reported in ChEMBL document CHEMBL2062404, “Purification and antiradical properties of the structural unit of betalains” (J Nat Prod, 2012).
Active and inactive are the calls of the source. No cut-off for these calls is given here.

Columns and labels:
Assay type in all cases: functional
[1] = Antioxidant activity against ABTS radical assessed as trolox equivalent after 24 hr at pH 7
[2] = Antioxidant activity against ABTS radical assessed as trolox equivalent at 50 uM after 24 hr at pH 5.5
[3] = Antioxidant activity assessed as ferric ion reduction by 2,4,6-tris(2- pyridyl)-s-triazine-based spectrophotometry
[4] = Antioxidant activity against ABTS radical assessed as trolox equivalent at 50 uM after 24 hr at pH >5.5

Compound	Activity [1] [equiv]	Activity [2]	Activity [3]	Activity [4]
Oc1ccc(/C=C/c2cc(O)cc(O)c2)cc1	2.7	–	–	–
O=C/C=C1/C=C(C(=O)O)N[C@H](C(=O)O)C1	2.7	inactive	Active	Active
